# From patent US8921405B2, “Compounds” (Orexo AB, priority 2009, dated 2014)
# Molecular target: T1, recombinant human mPGES-1 (Homo sapiens, UniProt O14684)
# T1 construct: made in house; host or cells: Rosetta E. coli (membrane/microsome fraction)
# T1 sequence (O14684 1-152): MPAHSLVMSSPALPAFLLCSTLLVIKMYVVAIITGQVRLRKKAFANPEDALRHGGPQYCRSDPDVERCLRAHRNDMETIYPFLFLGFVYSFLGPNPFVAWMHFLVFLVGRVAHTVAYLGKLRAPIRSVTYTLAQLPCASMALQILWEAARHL
# Assay: mPGES-1 HTRF assay (inhibition of PGE2 formation from PGH2)
# Assay type: biochemical
# Conditions: HTRF assay; for inhibition at 10 µM: compound concentration of 10 μM, read-out: % inhibition
# Protocol: The basis of the assay used is to measure the inhibition of microsomal prostaglandin E2 synthase-1 (mPGES-1) dependent prostaglandin (PG) E2 formation from PGH2 by different compounds. Thus, the formation of PGE2 is used as signal and a lowering of this signal can be interpreted as inhibition of mPGES-1. […] Microsomes from Rosetta E. coli bacteria expressing recombinant human mPGES-1 can be derived as described below: Inoculate 5 ml LB with Amp and Chloro with bacteria from freeze culture. Incubate over night at 37° C. with 200 rpm. Thereafter, inoculate 500-800 ml LB containing Amp and Chloro with the 5 ml on culture and grow to OD640 of 0.6-0.8. Chill the culture to +4° C. before induction. Induce the culture with IPTG at a final concentration of 400 μM. Express the protein at room temp 18-23° C. with 200 rpm shaking over night. The following steps can be performed on the following day: • 1. Spin down the cells in 250 ml centrifuge flasks for 15 min at 7000 rpm • 2. Dissolve the pellet from 250 ml culture in 12.5 ml homogenization buffer • 3. Disintegrate the cells by sonication, 4×10 seconds at 35% amplitude • 4. Add 2.5 ml MgCl2 (100 mM) and DNase 12.5 μl (0.8 mg/ml) and incubate on ice for 30 min • 5. Spin down the bacteria debris and save the supernatant, 7000 rpm for 15 min • 6. Isolate the protein containing membranes in the supernatant by ultracentrifugation 45000×g for 1 hour. • 7. Discard the supernatant and dissolve the pellet in 20 mM KPi buffer and aliquot the enzyme and store aliquots at −80° C. Before each experiment is performed an aliquot of the enzyme is thawed and it can then be dissolved in 0.1 M KPi pH 7.4 buffer containing 2.5 mM GSH. 50 μl of this enzyme solution is subsequently dispensed in a 384-well plate at room temperature. 0.5 μl of the inhibitor dissolved in DMSO is thereafter added to each well and incubated for 25 minutes at room temperature. Subsequently, 2 μl of PGH2 dissolved in an appropriate solvent is added to each well and after one minute at room temperature, the acidified stop solution containing FeCl2 is added. 4 μl of the total volume is transferred to a separate plate and diluted 750-fold in two separate steps before quantification of PGE2. In order to quantitate the amount of PGE2 that has been formed, a homogenous time resolved fluorescent (HTRF) detection of PGE2 can be performed by the use of a commercially available kit from CisBio essentially according to the manufacturer's protocol. […] The sealing film is thereafter removed from the NC wells. • 5 μl Eu3+-cryptate labeled anti-PGE2 can now be added to rows 1 to 24 by using a Multidrop. • The plate can now be covered with sealing film. • The plate can now be centrifuge at 1200 rpm for 1 minute and place at 4° C. overnight. After the over night incubation the fluorescence is measured by the use of an appropriate microplate reader. […] The extent of the specific HTRF is measured as a ratio of the emission intensity at 665 nm vs. that at 620 nm. A standard curve using synthetic PGE2 is used to quantify the amount of PGE2 in unknown samples. The degree of inhibition can be calculated as percent inhibition by dividing the amount of PGE2 formed in unknown samples by the amount of PGE2 formed in control samples.
Structure (SMILES),inhibition at 10 µM,IC50
"Cn1c(Nc2cc(CNC(=O)C3(CN)CC3)ccc2Cl)nc2cc(C(=O)Nc3ccc(Br)cc3)ccc21 [Example 50, 2-(5-{[1-(Aminomethyl)cyclopropylamido]methyl}-2-chlorophenylamino)-N-(4-bromophenyl)-1-methylbenzimidazole-5-carboxamide]",100%,–
"Cn1c(Nc2cc(CNC(=O)C3(C)CCC(F)(F)CC3)ccc2Cl)nc2cc(C(=O)Nc3ccc(Br)cc3)ccc21 [Example 51, N-(4-Bromophenyl)-2-{2-chloro-5-[(4,4-difluoro-1-methylcyclohexyl-amido)methyl]phenylamino}-1-methylbenzimidazole-5-carboxamide]",94%,–
"Cn1c(Nc2cc(CNC(=O)C3(C(F)(F)F)CC3)ccc2Cl)nc2cc(C(=O)NCCOC(C)(C)C)ccc21 [Example 52, N-(2-tert-Butoxyethyl)-2-{2-chloro-5-[(1-trifluoromethylcyclopropyl-amido)methyl]phenylamino}-1-methylbenzimidazole-5-carboxamide]",96%,–
"Cn1c(Nc2cc(CNC(=O)C3(C(F)(F)F)CC3)ccc2Cl)nc2cc(C(=O)NCCCC(F)(F)F)ccc21 [Example 53, 2-{2-Chloro-5-[(1-trifluoromethylcyclopropylamido)methyl]phenylamino}-1-methyl-N-(4,4,4-trifluorobutyl)benzimidazole-5-carboxamide]",100%,–
"Cn1c(Nc2cc(CNC(=O)C3(C(F)(F)F)CC3)ccc2Cl)nc2cc(C(=O)NC3CCC(F)(F)CC3)ccc21 [Example 54, 2-{2-chloro-5-[(1-trifluoromethylcyclopropylamido)methyl]phenylamino}-N-(4,4-difluorocyclohexyl)-1-methylbenzimidazole-5-carboxamide]",98%,–
"CN1CCCC1CCNC(=O)c1ccc2c(c1)nc(Nc1cc(CNC(=O)C3(C(F)(F)F)CC3)ccc1Cl)n2C (stereo not shown) [Example 55, 2-{2-chloro-5-[(1-trifluoromethylcyclopropylamido)methyl]phenylamino}-1-methyl-N-[2-(1-methyl-2-pyrrolidinyl)ethyl]benzimidazole-5-carboxamide]",68%,–
"Cn1c(Nc2cc(CNC(=O)C(C)(C)C)ccc2Cl)nc2cc(C(=O)Nc3ccc(Br)cc3)ccc21 [Example 57, N-(4-Bromophenyl)-2-{2-chloro-5-[(tert.butylcarbonylamino)methyl]-phenylamino}-1-methylbenzimidazole-5-carboxamide]",–,1 nM
"Cn1c(Nc2cc(CNC(=O)C3(C(F)(F)F)CC3)ccc2Cl)nc2cc(C(=O)Nc3ccc(Br)cc3)c(OCC(F)F)cc21 [Example 59, N-(4-Bromo-phenyl)-2-(2-chloro-5-{[(1-trifluoromethyl-cyclopropanecarbonyl)-amino]-methyl}-phenylamino)-6-(2,2-difluoro-ethoxy)-1-methyl-1H-benzimidazole-5-carboxylic acid amide]",–,2 nM
"Cn1c(Nc2cc(CNC(=O)C3(C(F)(F)F)CC3)ccc2Cl)nc2cc(C(=O)NCC3CC3)c(OCC(F)F)cc21 [Example 60, N-(Cyclopropylmethyl)-2-(2-chloro-5-{[(1-trifluoromethyl-cyclopropanecarbonyl)-amino]-methyl}-phenylamino)-6-(2,2-difluoro-ethoxy)-1-methyl-1H-benzimidazole-5-carboxylic acid amide]",–,1 nM
"Cn1c(Nc2cc(CNC(=O)C3(C(F)(F)F)CC3)ccc2Cl)nc2cc(C(=O)NCCCC(F)(F)F)c(OCC(F)F)cc21 [Example 61, N-(4,4,4-Trifluorobutyl)-2-(2-chloro-5-{[(1-trifluoromethyl-cyclopropanecarbonyl)-amino]-methyl}-phenylamino)-6-(2,2-difluoro-ethoxy)-1-methyl-1H-benzimidazole-5-carboxylic acid amide]",–,1 nM
"Cn1c(Nc2cc(CNC(=O)C3(C(F)(F)F)CC3)ccc2Cl)nc2cc(C(=O)NC3CCC(F)(F)CC3)c(OCC(F)F)cc21 [Example 62, N-(4,4-Difluorocyclohexyl)-2-(2-chloro-5-{[(1-trifluoromethyl-cyclopropanecarbonyl)-amino]-methyl}-phenylamino)-6-(2,2-difluoro-ethoxy)-1-methyl-1H-benzimidazole-5-carboxylic acid amide]",–,1 nM
"COc1cc2c(cc1C(=O)Nc1ccc(Br)cc1)nc(Nc1cc(CNC(=O)C3(C(F)(F)F)CC3)ccc1Cl)n2C [Example 63, N-(4-Bromo-phenyl)-2-(2-chloro-5-{[(1-trifluoromethyl-cyclopropanecarbonyl)-amino]-methyl}-phenylamino)-6-methoxy-1-methyl-1H-benzimidazole-5-carboxylic acid amide]",–,2 nM
"COc1cc2c(cc1C(=O)NCC1CC1)nc(Nc1cc(CNC(=O)C3(C(F)(F)F)CC3)ccc1Cl)n2C [Example 64, N-(Cyclopropylmethyl)-2-(2-chloro-5-{[(1-trifluoromethyl-cyclopropanecarbonyl)-amino]-methyl}-phenylamino)-6-methoxy-1-methyl-1H-benzimidazole-5-carboxylic acid amide]",–,2 nM
"COc1cc2c(cc1C(N)=O)nc(Nc1cc(CNC(=O)C3(C(F)(F)F)CC3)ccc1Cl)n2C [Example 65, 2-(2-chloro-5-{[(1-trifluoromethyl-cyclopropanecarbonyl)-amino]-methyl}-phenylamino)-6-methoxy-1-methyl-1H-benzimidazole-5-carboxylic acid amide]",–,300 nM
"Cn1c(Nc2cc(CNC(=O)C3(C(F)(F)F)CC3)ccc2F)nc2cc(C(=O)Nc3ccc(Br)cc3)c(OCC(F)F)cc21 [Example 66, N-(4-Bromo-phenyl)-2-(2-fluoro-5-{[(1-trifluoromethyl-cyclopropanecarbonyl)-amino]-methyl}-phenylamino)-6-(2,2-difluoro-ethoxy)-1-methyl-1H-benzimidazole-5-carboxylic acid amide]",–,3 nM
"O=C(Nc1ccc(Br)cc1)c1cc2nc(Nc3cc(CNC(=O)C4(C(F)(F)F)CC4)ccc3Cl)[nH]c2cc1OCC(F)F [Example 67, N-(4-Bromo-phenyl)-2-(2-chloro-5-{[(1-trifluoromethyl-cyclopropanecarbonyl)-amino]-methyl}-phenylamino)-6-(2,2-difluoro-ethoxy)-1H-benzimidazole-5-carboxylic acid amide]",–,2 nM
"O=C(NCC1CC1)c1cc2nc(Nc3cc(CNC(=O)C4(C(F)(F)F)CC4)ccc3Cl)[nH]c2cc1OCC(F)F [Example 68, N-(Cyclopropylmethyl)-2-(2-chloro-5-[{(l-trifluoromethyl-cyclopropanecarbonyl)-amino]-methyl}-phenylamino)-6-(2,2-difluoro-ethoxy)-1H-benzimidazole-5-carboxylic acid amide]",–,3 nM
"COc1cc2[nH]c(Nc3cc(CNC(=O)C4(C(F)(F)F)CC4)ccc3Cl)nc2cc1C(=O)Nc1ccc(Br)cc1 [Example 69, N-(4-Bromo-phenyl)-2-(2-chloro-5-{[(1-trifluoromethyl-cyclopropanecarbonyl)-amino]-methyl}-phenylamino)-6-methoxy-1H-benzimidazole-5-carboxylic acid amide]",–,1 nM
"CN(C)CCn1c(Nc2cc(CNC(=O)C3(C(F)(F)F)CC3)ccc2Cl)nc2cc(C(=O)Nc3ccc(Br)cc3)ccc21 [Example 70, N-(4-Bromo-phenyl)-2-(2-chloro-5-{[(1-trifluoromethyl-cyclopropanecarbonyl)-amino]-methyl}-phenylamino)-1-(2-(dimethylamino)ethyl)-1H-benzimidazole-5-carboxylic acid amide]",–,3 nM
